How the values were obtained:
Test in all cases: Oxford cup method antibacterial activity
Type in all cases: cell-based
Bacillus subtilis BAS2 = conditions: 150 μL of 10 mg/ml in 1% acetonitrile aqueous solution, 1% indicator bacteria, read-out: Diameter of inhibition zone
Protocol: (§1) The antibacterial activity of indole-3-lactic acid obtained by purification in step III in Embodiment 2 (i.e., concentrated H4 with a purity of 99.00%) was determined by an oxford cup method. 1% (volume concentration) of indicator bacteria was added to 150 μL of 10 mg/ml indole-3-lactic acid (dissolved in 1% acetonitrile aqueous solution). […] Listeria monocytogenes LM1, Bacillus subtilis BAS2, Salmonella paratyphi B CMCC50094, Salmonella paratyphi A CMCC50093, Salmonella enterica subsp. arizonae CMCC (B) 47001 and Salmonella typhimurium CMCC50015 were purchased from National Center for Medical Culture Collections (CMCC). Escherichia coli DH5a was purchased from Sangon Biotech (Shanghai) Co., Ltd. Staphylococcus aureus ATCC25923, Pseudomonas aeruginosa ATCC47085, Salmonella enterica subsp. enterica ATCC14028 and Salmonella choleraseuis ATCC13312 were purchased from American Type Culture Collection (ATCC). Micrococcus luteus CICC 10209 was purchased from China Center of Industrial Culture Collection (CICC). Staphylococcus citreus LC5 was purchased from China Center for Type Culture Collection (CCTCC). Staphylococcus simulans, Staphylococcus warneri, Staphylococcus carnosus pCA44 and Staphylococcus carnosus pot20 were presented by Professor Eefjan Breukink of Utrecht University in the Netherlands.

[1] = tested on: Pseudomonas aeruginosa ATCC47085; conditions: 150 μL of 10 mg/ml in 1% acetonitrile aqueous solution, 1% indicator bacteria, read-out: Diameter of inhibition zone
Protocol: as §1

[2] = tested on: Staphylococcus carnosus pot20; conditions: 150 μL of 10 mg/ml in 1% acetonitrile aqueous solution, 1% indicator bacteria, read-out: Diameter of inhibition zone
Protocol: as §1

[3] = tested on: Salmonella choleraseuis ATCC13312; conditions: 150 μL of 10 mg/ml in 1% acetonitrile aqueous solution, 1% indicator bacteria, read-out: Diameter of inhibition zone
Protocol: as §1

[4] = tested on: Salmonella typhimurium CMCC50015; conditions: Salmonella enterica, 150 μL of 10 mg/ml in 1% acetonitrile aqueous solution, 1% indicator bacteria, read-out: Diameter of inhibition zone
Protocol: as §1

[5] = tested on: Listeria monocytogenes LM1; conditions: 150 μL of 10 mg/ml in 1% acetonitrile aqueous solution, 1% indicator bacteria, read-out: Diameter of inhibition zone
Protocol: as §1

[6] = tested on: Staphylococcus citreus LC5; conditions: 150 μL of 10 mg/ml in 1% acetonitrile aqueous solution, 1% indicator bacteria, read-out: Diameter of inhibition zone
Protocol: as §1

[7] = tested on: Salmonella paratyphi A CMCC50093; conditions: Salmonella enterica, 150 μL of 10 mg/ml in 1% acetonitrile aqueous solution, 1% indicator bacteria, read-out: Diameter of inhibition zone
Protocol: as §1

[8] = tested on: Staphylococcus aureus ATCC25923; conditions: 150 μL of 10 mg/ml in 1% acetonitrile aqueous solution, 1% indicator bacteria, read-out: Diameter of inhibition zone
Protocol: as §1

[9] = tested on: Staphylococcus carnosus pCA44; conditions: PCA44, read-out: Diameter of inhibition zone
Protocol: as §1

Staphylococcus warneri = conditions: 150 μL of 10 mg/ml in 1% acetonitrile aqueous solution, 1% indicator bacteria, read-out: Diameter of inhibition zone
Protocol: as §1

[10] = tested on: Salmonella enterica subsp. arizonae CMCC(B)47001; conditions: 150 μL of 10 mg/ml in 1% acetonitrile aqueous solution, 1% indicator bacteria, read-out: Diameter of inhibition zone
Protocol: as §1

Escherichia coli DH5α = conditions: 150 μL of 10 mg/ml in 1% acetonitrile aqueous solution, 1% indicator bacteria, read-out: Diameter of inhibition zone
Protocol: as §1

[11] = tested on: Salmonella paratyphi B CMCC50094; conditions: Salmonella enterica, 150 μL of 10 mg/ml in 1% acetonitrile aqueous solution, 1% indicator bacteria, read-out: Diameter of inhibition zone
Protocol: as §1

[12] = tested on: Salmonella enterica subsp. enterica ATCC14028; conditions: 150 μL of 10 mg/ml in 1% acetonitrile aqueous solution, 1% indicator bacteria, read-out: Diameter of inhibition zone
Protocol: as §1

[13] = tested on: Micrococcus luteus CICC 10209; conditions: CICC10209, 150 μL of 10 mg/ml in 1% acetonitrile aqueous solution, 1% indicator bacteria, read-out: Diameter of inhibition zone
Protocol: as §1

Staphylococcus simulans = conditions: 150 μL of 10 mg/ml in 1% acetonitrile aqueous solution, 1% indicator bacteria, read-out: Diameter of inhibition zone
Protocol: as §1

## O=C(O)C(O)Cc1c[nH]c2ccccc12 (centres unmarked) [indole-3-lactic acid, Indole-3-lactic acid]
Bacillus subtilis BAS2
  zone of inhibition at 10000 µg/mL: 15.67 ± 0.01 mm
[1]
  zone of inhibition at 10000 µg/mL: 10.66 ± 0.08 mm
[2]
  zone of inhibition at 10000 µg/mL: 15 ± 0.55 mm
[3]
  zone of inhibition at 10000 µg/mL: 13.6 ± 0.23 mm
[4]
  zone of inhibition at 10000 µg/mL: 12.7 ± 0.18 mm
[5]
  zone of inhibition at 10000 µg/mL: 10.95 ± 0.07 mm
[6]
  zone of inhibition at 10000 µg/mL: 13.06 ± 0.08 mm
[7]
  zone of inhibition at 10000 µg/mL: 15.06 ± 0.08 mm
[8]
  zone of inhibition at 10000 µg/mL: 13.4 ± 0.25 mm
[9]
  zone of inhibition at 10000 µg/mL: 16.4 ± 0.27 mm
Staphylococcus warneri
  zone of inhibition at 10000 µg/mL: 18.76 ± 0.06 mm
[10]
  zone of inhibition at 10000 µg/mL: 13.4 ± 0.45 mm
Escherichia coli DH5α
  zone of inhibition at 10000 µg/mL: 12.5 ± 0.17 mm
[11]
  zone of inhibition at 10000 µg/mL: 13.2 ± 0.21 mm
[12]
  zone of inhibition at 10000 µg/mL: 12.8 ± 0.17 mm
[13]
  zone of inhibition at 10000 µg/mL: 19.1 ± 0.76 mm
Staphylococcus simulans
  zone of inhibition at 10000 µg/mL: 13.4 ± 0.25 mm

Reference: patent US12522851B2, “Method for purifying indole-3-lactic acid from Lactobacillus plantarum fermentation supernatant” (Zhejiang Gongshang University, priority 2021, dated 2026)
